Laboratory results from PubChem BioAssay AID330 (DTP/NCI, 2004).
Values joined by “and” are separate entries in the source; they are usually repeats but may differ in a detail not shown here. Equal values may be shown once. Toxic doses and inconclusive results are not listed.

System: P388 leukemia ip, CD2F1 mice, survival T/C
Assay: NCI In Vivo Anticancer Drug Screen. Data for tumor model P388 Leukemia (intraperitoneal) in CD2F1 (CDF1) mice
Conditions: endpoint: median survival time, higher = longer survival
Procedure, shortened: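 Mice carrying the transplanted tumor received test compound or vehicle. Survival was recorded in each group, and the value is the treated-group measurement divided by that of the vehicle-treated control group.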

[1] = dose: 50.0 mg/kg/injection, schedule: Q01DX005 (ip), vehicle: Klucel (hydroxypropylcellulose) (HPC)
[2] = dose: 100.0 mg/kg/injection, schedule: Q01DX005 (ip), vehicle: Klucel (hydroxypropylcellulose) (HPC)
[3] = dose: 200.0 mg/kg/injection, schedule: Q01DX005 (ip), vehicle: Klucel (hydroxypropylcellulose) (HPC)
[4] = dose: 25.0 mg/kg/injection, schedule: Q01DX009 (ip), vehicle: saline
[5] = dose: 50.0 mg/kg/injection, schedule: Q01DX009 (ip), vehicle: saline
[6] = dose: 100.0 mg/kg/injection, schedule: Q01DX009 (ip), vehicle: saline
[7] = dose: 60.0 mg/kg/injection, schedule: Q01DX005 (ip), vehicle: Klucel (hydroxypropylcellulose) (HPC)
[8] = dose: 120.0 mg/kg/injection, schedule: Q01DX005 (ip), vehicle: Klucel (hydroxypropylcellulose) (HPC)
[9] = dose: 240.0 mg/kg/injection, schedule: Q01DX005 (ip), vehicle: Klucel (hydroxypropylcellulose) (HPC)
[10] = dose: 60.0 mg/kg/injection, schedule: Q01DX005 (ip), vehicle: saline with Tween-80
[11] = dose: 120.0 mg/kg/injection, schedule: Q01DX005 (ip), vehicle: saline with Tween-80
[12] = dose: 240.0 mg/kg/injection, schedule: Q01DX005 (ip), vehicle: saline with Tween-80

## COC(=O)c1csc(-c2csc(CCNC(=O)c3ccccc3)n2)n1
dose: 100.0 mg/kg/injection, schedule: Q04DX002 (ip), vehicle: saline with Tween-80
  T/C: 93 % of control
dose: 200.0 mg/kg/injection, schedule: Q04DX002 (ip), vehicle: saline with Tween-80
  T/C: 95 % of control
dose: 400.0 mg/kg/injection, schedule: Q04DX002 (ip), vehicle: saline with Tween-80
  T/C: 96 % of control

## CC(SC(C)C(=O)O)C(=O)O (stereo not given)
dose: 100.0 mg/kg/injection, schedule: Q04DX002 (ip), vehicle: saline
  T/C: 97 % of control
dose: 200.0 mg/kg/injection, schedule: Q04DX002 (ip), vehicle: saline
  T/C: 109 % of control

## O=C(O)Cc1cn2cc(Br)ccc2n1
dose: 100.0 mg/kg/injection, schedule: Q01DX001 (ip), vehicle: saline with Tween-80
  T/C: 105 % of control
dose: 200.0 mg/kg/injection, schedule: Q01DX001 (ip), vehicle: saline with Tween-80
  T/C: 109 % of control
dose: 400.0 mg/kg/injection, schedule: Q01DX001 (ip), vehicle: saline with Tween-80
  T/C: 104 % of control

## O=C1NS(=O)(=O)Oc2ccccc2O1
[1]
  T/C: 107 % of control
[2]
  T/C: 100 % of control
[3]
  T/C: 95 % of control

## N#C/C(=C1/OC(=N)C(c2ccc(Cl)cc2)C1=O)c1ccc(Cl)cc1 (stereo not given)
dose: 50.0 mg/kg/injection, schedule: Q01DX005 (ip), vehicle: saline with Tween-80
  T/C: 110 % of control
dose: 100.0 mg/kg/injection, schedule: Q01DX005 (ip), vehicle: saline with Tween-80
  T/C: 99 % of control

## CCCN(CCC)CC(=O)NC1CC(OC2CC(O)(C(C)=O)Cc3c(O)c4c(c(O)c32)C(=O)c2c(OC)cccc2C4=O)OC(C)C1O (stereo not given)
dose: 0.25 mg/kg/injection, schedule: Q01DX009 (ip), vehicle: water
  T/C: 107 % of control
dose: 0.5 mg/kg/injection, schedule: Q01DX009 (ip), vehicle: water
  T/C: 101 % of control
dose: 1.0 mg/kg/injection, schedule: Q01DX009 (ip), vehicle: water
  T/C: 107 % of control
dose: 2.0 mg/kg/injection, schedule: Q01DX009 (ip), vehicle: water
  T/C: 103 % of control
dose: 4.0 mg/kg/injection, schedule: Q01DX009 (ip), vehicle: water
  T/C: 100 % of control
dose: 8.0 mg/kg/injection, schedule: Q01DX009 (ip), vehicle: water
  T/C: 107 % of control

## CN1CCC(c2ccccc2)(c2ccccc2)OC1
[4]
  T/C: 100 % of control
[5]
  T/C: 100 % of control
[6]
  T/C: 113 % of control

## NC1=C(O)C(=O)C(c2ccc3c(c2)CCC3)O1 (stereo not given)
[7]
  T/C: 91 % of control
[8]
  T/C: 87 % of control

## Cc1cnc(NCCCNc2ncc(C)c(-c3ccccc3O)n2)nc1-c1ccccc1O
[1]
  T/C: 88 % of control
[2]
  T/C: 86 % of control
[3]
  T/C: 92 % of control

## O=C1NC(c2ccccc2)(c2ccccc2)C(=O)N1CN1CC=CCC1
[7]
  T/C: 103 % of control
[8]
  T/C: 108 % of control
[9]
  T/C: 97 % of control

## O=C1Nc2c(cccc2-c2ccccc2)C(=O)C1(O)c1ccccc1 (stereo not given)
[7]
  T/C: 97 % of control
[8]
  T/C: 94 % of control
[9]
  T/C: 90 % of control

## N#Cc1c(F)cccc1N1CCSCC1
[7]
  T/C: 109 % of control
[8]
  T/C: 93 % of control
[9]
  T/C: 89 % of control

## O=C1/C(=N/O)Cc2ccccc21
dose: 12.5 mg/kg/injection, schedule: Q04DX003 (ip), vehicle: saline with Tween-80
  T/C: 100 % of control
dose: 25.0 mg/kg/injection, schedule: Q04DX003 (ip), vehicle: saline with Tween-80
  T/C: 100 % of control
dose: 50.0 mg/kg/injection, schedule: Q04DX003 (ip), vehicle: saline with Tween-80
  T/C: 100 % of control

## COc1ccc2c(c1)OC(C)(C)C(c1ccccc1)C2c1ccc(O)c([N+](=O)[O-])c1 (stereo not given)
[1]
  T/C: 109 % of control
[2]
  T/C: 101 % of control

## Clc1nc(SC2=NCCN2)c2[nH]cnc2n1
dose: 5.0 mg/kg/injection, schedule: Q01DX009 (ip), vehicle: saline with Tween-80
  T/C: 100 % of control and 92 % of control
dose: 10.0 mg/kg/injection, schedule: Q01DX009 (ip), vehicle: saline with Tween-80
  T/C: 104 % of control and 113 % of control
dose: 20.0 mg/kg/injection, schedule: Q01DX009 (ip), vehicle: saline with Tween-80
  T/C: 105 % of control
dose: 40.0 mg/kg/injection, schedule: Q01DX009 (ip), vehicle: saline with Tween-80
  T/C: 100 % of control

## COc1ccc(C=C2C(=O)N(c3ccccc3)C(=S)N(c3ccccc3)C2=O)cc1
[1]
  T/C: 94 % of control
[2]
  T/C: 90 % of control
[3]
  T/C: 88 % of control

## O=C(CCCCCS)NCCCCCCCCCCNC(=O)CCCCCS
dose: 100.0 mg/kg/injection, schedule: Q04DX002 (ip), vehicle: Klucel (hydroxypropylcellulose) (HPC)
  T/C: 97 % of control
dose: 200.0 mg/kg/injection, schedule: Q04DX002 (ip), vehicle: Klucel (hydroxypropylcellulose) (HPC)
  T/C: 92 % of control
dose: 400.0 mg/kg/injection, schedule: Q04DX002 (ip), vehicle: Klucel (hydroxypropylcellulose) (HPC)
  T/C: 90 % of control

## CN(C(=S)S(C)(=O)=O)c1ccccc1
dose: 3.12 mg/kg/injection, schedule: Q01DX009 (ip), vehicle: Klucel (hydroxypropylcellulose) (HPC)
  T/C: 102 % of control
dose: 6.25 mg/kg/injection, schedule: Q01DX009 (ip), vehicle: Klucel (hydroxypropylcellulose) (HPC)
  T/C: 100 % of control
dose: 12.5 mg/kg/injection, schedule: Q01DX009 (ip), vehicle: Klucel (hydroxypropylcellulose) (HPC)
  T/C: 86 % of control

## COC1/C=C\OC2(C)Oc3c(C)c(O)c4c(O)c(c5sc(N)nc5c4c3C2=O)NC(=O)/C(C)=C\C=C\C(C)C(O)C(C)C(O)C(C)C(OC(C)=O)C1C (stereo not given)
dose: 25.0 mg/kg/injection, schedule: Q01DX009 (ip), vehicle: Klucel (hydroxypropylcellulose) (HPC)
  T/C: 100 % of control
dose: 50.0 mg/kg/injection, schedule: Q01DX009 (ip), vehicle: Klucel (hydroxypropylcellulose) (HPC)
  T/C: 102 % of control
dose: 100.0 mg/kg/injection, schedule: Q01DX009 (ip), vehicle: Klucel (hydroxypropylcellulose) (HPC)
  T/C: 100 % of control
dose: 200.0 mg/kg/injection, schedule: Q01DX009 (ip), vehicle: Klucel (hydroxypropylcellulose) (HPC)
  T/C: 100 % of control

## Cc1nc2nc(=S)[nH]c(N)c2nc1C
dose: 12.5 mg/kg/injection, schedule: Q01DX009 (ip), vehicle: saline
  T/C: 103 % of control
[4]
  T/C: 95 % of control
[5]
  T/C: 95 % of control
[6]
  T/C: 100 % of control

## N#CC12CCCC(=O)N1c1ccccc1S2 (stereo not given)
[10]
  T/C: 108 % of control
[11]
  T/C: 104 % of control
[12]
  T/C: 95 % of control

## COc1ccc(C2OC(=O)c3ncccc32)cc1 (stereo not given)
dose: 50.0 mg/kg/injection, schedule: Q01DX009 (ip), vehicle: saline with Tween-80
  T/C: 102 % of control
dose: 100.0 mg/kg/injection, schedule: Q01DX009 (ip), vehicle: saline with Tween-80
  T/C: 104 % of control
dose: 200.0 mg/kg/injection, schedule: Q01DX009 (ip), vehicle: saline with Tween-80
  T/C: 104 % of control

## CNC(=O)OCc1nc(-c2ccccc2)oc1COC(=O)NC
dose: 12.5 mg/kg/injection, schedule: Q01DX005 (ip), vehicle: distilled water + Tween-80
  T/C: 96 % of control
dose: 25.0 mg/kg/injection, schedule: Q01DX005 (ip), vehicle: distilled water + Tween-80
  T/C: 97 % of control
dose: 50.0 mg/kg/injection, schedule: Q01DX005 (ip), vehicle: distilled water + Tween-80
  T/C: 92 % of control
dose: 100.0 mg/kg/injection, schedule: Q01DX005 (ip), vehicle: distilled water + Tween-80
  T/C: 89 % of control
dose: 200.0 mg/kg/injection, schedule: Q01DX005 (ip), vehicle: distilled water + Tween-80
  T/C: 89 % of control

## CNC(=O)OCc1c(COC(=O)NC)c(-c2cccc(F)c2F)n2c1CCC2
dose: 12.5 mg/kg/injection, schedule: Q01DX009 (ip), vehicle: distilled water + Tween-80
  T/C: 171 % of control
dose: 25.0 mg/kg/injection, schedule: Q01DX009 (ip), vehicle: distilled water + Tween-80
  T/C: 156 % of control and 159 % of control

## COCc1onc(-c2ccc(OC)cc2)c1-c1ccc(OC)cc1
[10]
  T/C: 105 % of control
[11]
  T/C: 100 % of control
[12]
  T/C: 100 % of control

## O=NN(CCBr)C(=O)Nc1ccccc1
dose: 6.0 mg/kg/injection, schedule: Q01DX009 (ip), vehicle: saline with Tween-80
  T/C: 154 % of control
dose: 12.0 mg/kg/injection, schedule: Q01DX009 (ip), vehicle: saline with Tween-80
  T/C: 177 % of control
dose: 25.0 mg/kg/injection, schedule: Q01DX009 (ip), vehicle: saline with Tween-80
  T/C: 177 % of control
dose: 37.5 mg/kg/injection, schedule: Q01DX009 (ip), vehicle: saline with Tween-80
  T/C: 175 % of control
dose: 66.0 mg/kg/injection, schedule: Q04DX003 (ip), vehicle: saline
  T/C: 118 % of control
dose: 100.0 mg/kg/injection, schedule: Q04DX003 (ip), vehicle: saline
  T/C: 109 % of control
dose: 150.0 mg/kg/injection, schedule: Q04DX003 (ip), vehicle: saline
  T/C: 100 % of control
